Measured values: patent US20120022121A1, “INDOLES, DERIVATIVES AND ANALOGS THEREOF AND USES THEREFOR” (priority 2007, published 2012)
Where two headings read alike, the source gives them in different places.

Assays:
HEK293-pcDNA3-10 = assay: Growth inhibition assay (96 h); assay type: cell-based, human; details: Homo sapiens, HEK293-pcDNA3-10 (control for BCRP)
Source text: MTT (3-(4,5-dimethylthiazol-2-yl)-2,5-diphenyltetrazolium bromide) assay was also used for the leukemia cell lines. […] Cells were stained with SRB solution or MTT solution.

PC-3 xenografts = assay: In vivo antitumor efficacy, PC-3 xenograft; details: for tumor growth inhibition: PC-3 xenograft, 2 days/week, 4 weeks
cyclin B1, Cdc25C, Cdc2 = assay: Western blot of G2-M regulators; assay type: cell-based, human; details: PC-3 cells, 24 h treatment
Procedure: Treated cells were lysed in cold lysis buffer (20 mM Tris-HCl, pH 7.5, 150 mM NaCl, 1 mM Na2 EDTA, 1% Triton x-100, and freshly added Na3VO4 (2 mM), NaF (20 mM) and complete protease inhibitor cocktail). For each sample, an aliquot (20 to 40 μg) of total protein was loaded and run on a SDS-Page gel. Protein was transferred to nitrocellulose membranes (Bio-Rad Laboratories, Hercules, Calif.), blocked with 5% non-fat milk, incubated with primary antibody overnight at 4° C., and then incubated with secondary antibody at rt for 1 h. ECL™ (GE Healthcare Bio-Sciences Corp., Piscataway, N.J.) was used for detection. The band intensity was measured by densitometry using TotalLab TL100 Software v2006 (Nonlinear Dynamics Ltd., Newcastle upon Tyne, UK).

CV-1 = assay: Cell viability SRB assay, 96 h; assay type: cell-based; details: Cercopithecidae, CV-1 fibroblast cell line
Procedure: Cells were plated in 96-well plates at a density of 800-5,000 cells/well, depending on the cell line, in their required growth media containing 10% fetal bovine serum. Preliminary studies were performed with each cell line using a variety of cell densities and incubation times to determine appropriate seeding densities. The compound of interest was dissolved in DMSO, diluted in cell culture medium (final DMSO concentration was less than 0.5% v/v), and added to quadruplicate wells at final concentrations ranging from 0 to 100 μM. Control wells to which only drug-free vehicle was added were included as negative controls.
Cells were incubated for 96 hour at 37° C. in a humidified atmosphere containing 5% carbon dioxide.

[1] = Plasma pharmacokinetics in mice; assay type: in vivo; details: for bioavailability: read-out: absolute bioavailability
Procedure: A single dose (10 mg/kg) and various routes of administration (intravenous, oral, and subcutaneous) were used in order to approximate its in vivo disposition and interpret the results of subchronic toxicity studies and forthcoming in vivo xenograft studies. Diindole 13 was administered to groups (n=60) of mice for each route of administration. Mice (n=5 per time point) were sacrificed at up to twelve different time points (pre-dose and up to 24 h post-dose), and plasma samples were stored at −80° C. until HPLC analysis. An HPLC/UV analytical method was developed and validated to determine diindole 13 concentrations in plasma, with a linear range of 0.02 to 20 μg/mL and intra- and inter-day coefficients of variation at all concentrations less than 6%.

LNCaP and PC-3 cells = assay: DNA fragmentation by agarose gel electrophoresis; assay type: cell-based, human
Procedure: LNCaP and PC-3 cells were treated with different concentrations of drugs for different periods of time. At the end of the incubation, both floating and adherent cells were collected. […] DNA was visualized by ethidium bromide staining and UV transillumination.

[2] = mouse, plasma, iv, 10 mg/kg, I.V.
[3] = mouse, plasma, po, 10 mg/kg, P.O.
[4] = mouse, plasma, sc, 10 mg/kg, S.C.

## COc1cc(C(=O)c2cccc(-c3cc4ccccc4[nH]3)c2)cc(OC)c1OC [Compound 68, [3-(1H-Indol-2-yl)-phenyl]-(3,4,5-trimethoxy-phenyl)-methanone]
HEK293-pcDNA3-10
  IC50: 13.5 ± 1.6 nM
PC-3 xenografts; PC-3 xenograft mice, 5 and 10 mg/kg twice weekly
  tolerability: well tolerated
PC-3 xenografts; 5 mg/kg i.p.
  tumor growth inhibition: 36%
PC-3 xenografts; 10 mg/kg i.p.
  tumor growth inhibition: 68%
Cyclin B1, Cdc25C, Cdc2
  concentration at which cyclin B1 accumulation, Cdc25C (Ser216) and Cdc2 dephosphorylation were observed: higher than 50 nM

## O=C(c1cccc(-c2cc3ccccc3[nH]2)c1)c1cc2ccccc2[nH]1 [Compound 13, (1H-indol-2-yl)-[3-(1H-indol-2-yl)phenyl]methanone]
CV-1
  IC50: 78.3 ± 35 nM
[1]
  metabolism (LC/MS/MS analysis of metabolites): extensive oxidative metabolism with subsequent sulfation
  volume of distribution relative to total body water (0.6 L/kg): about 10 fold
[1]; 10 mg/kg, I.V.
  F: 1.00
[1]; 10 mg/kg, P.O.
  CL: 238 mL/min/kg
  F: 0.20
[1]; 10 mg/kg, S.C.
  CL: 95 mL/min/kg
  F: 0.73
[1]; after intravenous administration
  drug excreted unchanged in urine and feces: less than 5%
[1]; from clearance and hepatic blood flow […]
  hepatic extraction: exceeding 0.75
[1]; mouse, plasma, 10 mg/kg, oral (P.O.)
  bioavailability: 29%
[1]; [2]
  AUC: 2410 ng·h/mL
  Cmax: 2860 ng/mL
  Tmax: 0.08 h
  clearance: ~66.7 mL/min/kg
  half-life: < 3 h
[1]; mouse, plasma, iv, 10 mg/kg, I.V., read-out: Vss
  Vd: 6.35 L/kg
[1]; [3]
  AUC: 690 ng·h/mL
  Cmax: 120 ng/mL
  Tmax: ~3 h
  half-life: 2.97 h
[1]; [4]
  AUC: 1770 ng·h/mL
  Cmax: 310 ng/mL
  Tmax: ~3 h
  half-life: 4.52 h
[1]; mouse, plasma, sc, 10 mg/kg, subcutaneous (S.C.)
  bioavailability: 73%
LNCaP and PC-3 cells
  DNA fragmentation: induced DNA fragmentation
